Measured values as given in patent US20170298055A1, “sGC STIMULATORS” (IRONWOOD PHARMACEUTICALS, INC., priority 2014, published 2017).

Target: T1, soluble guanylate cyclase (sGC) (Homo sapiens, UniProt Q02108+Q02153)
T1 construct: endogenously expressing soluble guanylate cyclase (sGC); endogenous in cells; host or cells: HEK293
T1 sequence (Q02153 1-619): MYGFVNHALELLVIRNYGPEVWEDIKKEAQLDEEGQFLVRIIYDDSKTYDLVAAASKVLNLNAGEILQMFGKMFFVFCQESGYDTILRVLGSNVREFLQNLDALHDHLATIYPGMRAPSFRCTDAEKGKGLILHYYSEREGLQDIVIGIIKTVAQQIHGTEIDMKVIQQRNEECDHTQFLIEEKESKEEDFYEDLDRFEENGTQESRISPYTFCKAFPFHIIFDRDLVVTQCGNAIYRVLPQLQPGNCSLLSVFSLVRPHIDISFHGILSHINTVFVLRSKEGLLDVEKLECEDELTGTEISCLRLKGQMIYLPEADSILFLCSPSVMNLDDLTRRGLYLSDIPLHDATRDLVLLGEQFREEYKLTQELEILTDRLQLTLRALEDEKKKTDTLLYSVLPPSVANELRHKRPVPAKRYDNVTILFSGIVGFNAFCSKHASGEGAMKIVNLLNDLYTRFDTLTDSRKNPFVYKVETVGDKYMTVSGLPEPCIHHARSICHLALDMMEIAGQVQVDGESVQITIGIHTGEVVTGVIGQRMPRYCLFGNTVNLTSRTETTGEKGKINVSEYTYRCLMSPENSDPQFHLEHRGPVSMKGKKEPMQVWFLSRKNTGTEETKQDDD
T1 sequence (Q02108 1-690): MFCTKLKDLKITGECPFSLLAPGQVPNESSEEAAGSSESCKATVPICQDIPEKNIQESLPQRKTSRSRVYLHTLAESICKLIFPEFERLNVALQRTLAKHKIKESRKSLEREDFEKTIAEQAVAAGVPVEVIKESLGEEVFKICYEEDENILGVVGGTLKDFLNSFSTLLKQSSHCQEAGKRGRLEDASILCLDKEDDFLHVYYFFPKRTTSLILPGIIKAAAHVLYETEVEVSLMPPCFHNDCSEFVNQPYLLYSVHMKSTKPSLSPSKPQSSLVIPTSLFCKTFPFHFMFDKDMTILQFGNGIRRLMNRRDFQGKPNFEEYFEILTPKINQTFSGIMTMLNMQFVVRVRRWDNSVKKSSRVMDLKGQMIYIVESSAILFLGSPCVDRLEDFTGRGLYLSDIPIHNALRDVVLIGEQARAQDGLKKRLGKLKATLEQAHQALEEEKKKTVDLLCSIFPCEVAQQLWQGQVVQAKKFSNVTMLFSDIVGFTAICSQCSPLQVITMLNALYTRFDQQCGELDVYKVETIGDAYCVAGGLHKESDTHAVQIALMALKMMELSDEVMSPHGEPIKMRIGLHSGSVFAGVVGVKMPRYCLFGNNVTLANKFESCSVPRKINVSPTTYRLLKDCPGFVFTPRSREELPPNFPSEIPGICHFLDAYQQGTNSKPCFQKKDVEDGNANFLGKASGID
Test: sGC-HEK-cGMP assay, LC/MS detection, with SNP incubation (Example 2A)
Assay type: cell-based
Settings: HEK293 cells, in the presence of 10 μM SNP; constrained fit; read-out: sGC_HEK_LCMS cEC50 (nM) Binned (constrained)
Procedure: Human embryonic kidney cells (HEK293), endogenously expressing soluble guanylate cyclase (sGC), were used to evaluate the activity of test compounds. Compounds stimulating the sGC receptor should cause an increase in the intracellular concentration of cGMP. HEK 293 cells were seeded in Dulbecco's Modification of Eagle's Medium supplemented with fetal bovine serum (10% final) and L-glutamine (2 mM final) in a 200 μL volume at a density of 1×10^5 cells/well in a poly-D-lysine coated 96 well flat bottom plate and grown overnight at 37° C. Medium was aspirated and cells were washed with 1× Hank's Buffered Saline Salt Solution (200 μL). Cells were then incubated for 15 minutes at 37° C. with 0.5 mM 3-isobutyl-1-methylxanthine (200 μL). Test article and sodium nitroprusside were then added to the assay mixture (2 μL each) and incubated at 37° C. for 10 minutes. After the 10 minute incubation, the assay mixture was aspirated and 0.1M HCl (200 μL) was added to the cells. The plate was incubated at 4° C. for 30 minutes in the 0.1M HCl to stop the reaction and lysed the cells. The plates were then centrifuged at 1,200 g for 5 minutes at room temperature. Supernatants were collected and transferred to a new flat bottom 96 well plate for analysis. Vehicle controls were carried out using DMSO (1%). A known sGC stimulator, BAY 41-2272, was used as the positive control. Samples were diluted with an equal volume of 1 M Ammonium Acetate (pH 7) to neutralize samples for better chromatography. A 2× cGMP standard curve was prepared in 0.1 M HCl and then diluted with an equal volume of 1 M Ammonium Acetate, with the following final concentrations in nM: 1024, 512, 256, 128, 64, 32, 16, 8, 4, 2, 1. cGMP concentrations were determined from each sample using the LC/MS conditions (Table 2 below) and calculated standard curve. EC50 values were calculated from concentration-response curves generated with GraphPad Prism Software.

Row | SMILES | EC50 [nM]
1 | Fc1ccccc1Cn1nc(-c2ncc(F)c(OC3CCNC3)n2)cc1-c1ccon1 (centres unmarked) [Compound I-5] | 1000 to 5000
2 | O=C(COc1nc(-c2cc(-c3ccon3)n(Cc3ccccc3F)n2)ncc1F)N1CCOCC1 [Compound I-11] | 1000 to 5000
3 | CS(=O)(=O)CCCOc1nc(-c2cc(-c3ccon3)n(Cc3ccccc3F)n2)ncc1F [Compound I-18] | 1000 to 5000

Same assay, conditions: HEK293 cells, in the presence of 10 μM SNP; top of concentration-response curve not fitted to 100%; read-out: sGC_HEK_LCMS uEC50 (nM) Binned (unconstrained)

Row | SMILES | EC50 [nM]
4 | CC(C)(C)OC(=O)N1CCCC1COc1nc(-c2cc(-c3ccon3)n(Cc3ccccc3F)n2)ncc1F (centres unmarked) [Compound I-4] | 1000 to 5000
5 | COC(=O)COc1nc(-c2cc(-c3ccon3)n(Cc3ccccc3F)n2)ncc1F [Compound I-7] | 1000 to 5000
6 | COC(=O)C1(Oc2nc(-c3cc(-c4ccon4)n(Cc4ccccc4F)n3)ncc2F)CC1 [Compound I-8] | 1000 to 5000
7 | Fc1ccccc1Cn1nc(-c2ncc(F)c(OC3CCNCC3)n2)cc1-c1ccon1 [Compound I-13] | ≥ 5000
8 | Fc1ccccc1Cn1nc(-c2ncc(F)c(OC3CNC3)n2)cc1-c1ccon1 [Compound I-14] | 1000 to 5000
9 | Fc1ccccc1Cn1nc(-c2ncc(F)c(OC3CCOC3)n2)cc1-c1ccon1 (centres unmarked) [Compound I-15] | 100 to 1000
10 | Fc1ccccc1Cn1nc(-c2ncc(F)c(OCC(F)(F)c3ccccn3)n2)cc1-c1ccon1 [Compound I-17] | 100 to 1000
11 | CS(=O)(=O)N1CCCC(Oc2nc(-c3cc(-c4ccon4)n(Cc4ccccc4F)n3)ncc2F)C1 (centres unmarked) [Compound I-21] | 1000 to 5000
12 | COC(=O)c1ccccc1C#Cc1nc(-c2cc(-c3ccon3)n(Cc3ccccc3F)n2)ncc1F [Compound I-23] | 1000 to 5000
13 | O=C1O/C(=C\c2nc(-c3cc(-c4ccon4)n(Cc4ccccc4F)n3)ncc2F)c2ccccc21 [Compound I-26] | 1000 to 5000
14 | O=C(O)c1ccccc1C(=O)Cc1nc(-c2cc(-c3ccon3)n(Cc3ccccc3F)n2)ncc1F [Compound I-27] | 1000 to 5000

Target: T2, sGC enzyme (Homo sapiens, UniProt Q02108+Q02153)
T2 construct: host or cells: HEK293 cells stably expressing GloSensor 40F cGMP biosensor
T2 sequence (Q02153 1-619): T1 sequence (Q02153 1-619)
T2 sequence (Q02108 1-690): T1 sequence (Q02108 1-690)
Test: cGMP GloSensor cell-based assay, 384-well format (Example 2C)
Settings: read-out: sGC_HEK_GloSensor EC50/IC50 Abs (Norm) (nM) Binned
Excerpt: Human embryonic kidney cells (HEK293) cells expressing GloSensor™ 40F cGMP (Part No: CS182801, Promega) were used to evaluate the activity of test compounds. The luminescent biosensors (engineered luciferase) that were incorporated into these cells detect cGMP formed by the compounds stimulating the sGC enzyme and emit luminescence.
cGMP GloSensor cells were maintained in Dulbecco's Modification of Eagle's Medium (DMEM) supplemented with fetal bovine serum (FBS) (10% final) and hygromycine (200 ug/ml). The day before assay, cells were plated in DMEM with 10% FBS in a 50 μL volume at a density of 1.5×10^4 cells/well in a poly-D-lysine coated 384-well flat white-bottom plate (Corning Cat No 35661). Cells were incubated overnight at 37° C. in a humidified chamber with 5% CO2. The next day, medium was removed and cells were replaced with 40 ul/well of GloSensor™, 2 mM (Promega Cat No E1291). Cells were treated for 90 minutes at 25° C. to allow the substrate to equilibrate in the cells. Test compounds and Diethylenetriamine NONOate (DETA-NONOate) was diluted to 3 mM (20×) in serum-free CO2 independent medium and serally diluted at 4× dilutions to create 5× dose curve from which 10 ul was added to the wells (x μM concentration for test compound solution and 10 μM concentration for DETA-NONOate solution; wherein x is one of the following final concentrations).
For the kinetics studies, luminescense was measured right away for 0.2 sec per well with Envision (Perkin Elmer model No). For endpoint SAR screening, data were collected after 55 min incubation at room temperature.
Data analysis was carried out as indicated above in Example 2C.

Row | SMILES | EC50 [nM]
15 | OCCSc1nc(-c2cc(-c3ccon3)n(Cc3ccccc3F)n2)ncc1F [Compound I-34] | > 1000
16 | OCCSc1cnc(-c2cc(-c3ccon3)n(Cc3ccccc3F)n2)nc1SCCO [Compound I-35] | > 1000
17 | Fc1ccccc1Cn1nc(-c2ncc(F)c(Sc3ccccc3)n2)cc1-c1ccon1 [Compound I-37] | 100 to 1000
18 | O=S(=O)(c1ccccc1)c1nc(-c2cc(-c3ccon3)n(Cc3ccccc3F)n2)ncc1F [Compound I-38] | ≤ 100

Target: T3, human recombinant soluble guanylate cyclase enzyme α1β1 (Homo sapiens, UniProt Q02108+Q02153)
T3 construct: purchased Enzo Life Sciences ALX-201-177
T3 sequence (Q02153 1-619): T1 sequence (Q02153 1-619)
T3 sequence (Q02108 1-690): T1 sequence (Q02108 1-690)
Test: Purified human recombinant sGC α1β1 enzyme assay with DETA-NONOate, cGMP HTRF (Example 5)
Assay type: biochemical
Settings: 30 uM DETA NONOate, 50% of maximal response of 30 uM Compound Y, read-out: sGC_Enz_HTRF_a1b1 EC50/IC50 Abs (Norm) (nM) Binned
Procedure: Purified human recombinant soluble guanylate cyclase enzyme α1β1 (h sGC) obtained from Enzo Life Sciences (P/N: ALX-201-177) was used to evaluate the activity of test compounds. The assay reactions contained 0.1 M Tris (pH 8.0), 0.5 mg/mL BSA, 2 mM DTT, 4 mM MgCl2, 30 uM DETA NONOate (Enzo Life Science P/N: ALX-430-014), and 12.5 ng/ml human soluble guanylate cyclase enzyme. […] Guanosine 5′-triphosphate (Sigma-Aldrich P/N: G8877) was added to a final concentration of 300 μM and enzyme reactions were incubated (100 μL, 384-well plate format) at 37° C. for 20 minutes. The controls contained 3% DMSO (low control), or 30 uM of Compound Y (high control). After the 20 minute incubation, the reaction was stopped with the addition of 100 μL of ice cold 20% acetic acid.
cGMP concentrations in all samples were determined using the cGMP HTRF (Cisbio P/N: 62GM2PEC) assay per manufacturer's instructions. A cGMP standard curve was fit using a 4-parameter fit (log(inhibitor) vs. response variable slope) using GraphPad Prism Software v.6. Samples were diluted appropriately to ensure that values fell within the linear range of the standard curve.
Data were fit using a 4-parameter fit (log(agonist) vs. response variable slope) using GraphPad Prism Software v.6.

Row | SMILES | EC50 [nM]
19 | O=C(O)COc1nc(-c2cc(-c3ccon3)n(Cc3ccccc3F)n2)ncc1F [Compound I-6] | ≥ 5000

Test system: lambs with acute pulmonary hypertension
Test: not given
Settings: after intravenous ODQ; cited from earlier work

Row | SMILES | pulmonary vasodilation and transpulmonary cGMP release after ODQ treatment
20 | O=C(O)CCCCN(CCc1ccccc1OCc1ccc(CCc2ccccc2)cc1)Cc1ccc(C(=O)O)cc1 [BAY 58-2667] | greatly enhanced

Same assay, conditions: combination with inhaled nitric oxide; cited from earlier work

Row | SMILES | pulmonary vasodilation induced by iNO after inhaling microparticles
21 | Nc1nc(-c2nn(Cc3ccccc3F)c3ncccc23)nc(N)c1N1CCOCC1 [BAY 41-8543] | augmented

Same assay, conditions: inhaled microparticles, awake lambs, U-46619 infusion; cited from earlier work

Row | SMILES | effect on mean arterial pressure | pulmonary vasodilation | transpulmonary cGMP release
22 | Nc1nc(-c2nn(Cc3ccccc3F)c3ncccc23)ncc1C1CC1 [BAY 41-2272] | without significant effect on mean arterial pressure | dose dependent pulmonary vasodilation | increased transpulmonary cGMP release
23 | Nc1nc(-c2nn(Cc3ccccc3F)c3ncccc23)nc(N)c1N1CCOCC1 [BAY 41-8543] | without significant effect on mean arterial pressure | dose dependent pulmonary vasodilation | increased transpulmonary cGMP release
24 | O=C(O)CCCCN(CCc1ccccc1OCc1ccc(CCc2ccccc2)cc1)Cc1ccc(C(=O)O)cc1 [BAY 58-2667] | without significant effect on mean arterial pressure | dose dependent pulmonary vasodilation | increased transpulmonary cGMP release

Same assay, conditions: inhaled microparticles, awake lambs; cited from earlier work

Row | SMILES | systemic arterial oxygenation
25 | Nc1nc(-c2nn(Cc3ccccc3F)c3ncccc23)nc(N)c1N1CCOCC1 [BAY 41-8543] | increased systemic arterial oxygenation
26 | O=C(O)CCCCN(CCc1ccccc1OCc1ccc(CCc2ccccc2)cc1)Cc1ccc(C(=O)O)cc1 [BAY 58-2667] | increased systemic arterial oxygenation
